One experiment deals with mammary tumors. To be noted: rats; cited from earlier work.
A further experiment has as its system lung tumors. The settings on record: mice; cited from earlier work.
The test system of the next experiment is HDLP. Put plainly: Histone deacetylase assay with [3H] acetyl-labeled histone substrate. The settings on record: in vitro. It counts as biochemical, Aquifex aeolicus.
In a further experiment the test system is PLZF-RARα APL cells. To be noted: cited from earlier work.

Take suberoylanilide hydroxamic acid [SAHA]: the “preventing the formation of mammary tumors” value in the experiment on mammary tumors was “effective”. Also, the “preventing the formation of lung tumors” value with lung tumors is “effective”.

As for `CC(/C=C/C(=O)NO)=C\[C@@H](C)C(=O)c1ccc(N(C)C)cc1` [TSA, trichostatin A], the “inhibition of HDLP histone deacetylase activity” value with HDLP is “inhibited”. In the experiment on PLZF-RARα APL cells, the “responsiveness to retinoic acid-induced differentiation” value was “enhances their responsiveness”.

Source of the values: US7124068B2, “Crystal structure of a deacetylase and inhibitors thereof” (Sloan-Kettering Institute for Cancer Research, priority 1999, dated 2006).
